Experimental findings from US10471048B2, “Thienopyridine derivative for the treatment of hepatitis C infections” (Cipla (UK) Limited, priority 2015, dated 2019) are described below.

Broadly, the EC50 is the midpoint of the concentration-response curve. Low values mean an effect from little substance, high ones a need for much substance. The term CC50 denotes the concentration giving 50% cytotoxicity. The low end stands for greater toxicity to the cells, the high end for lower toxicity to the cells.

For data set [1], the system named is cell culture-derived HCV (HCVcc). Put plainly: microbe, parasite or virus in culture. It is filed as cell-based, Hepatitis C virus.
Method: (§1) Huh7.5 cells are grown in Dulbecco's modified essential media (DMEM), 10% fetal bovine serum (FBS), 1% penicillin-streptomycin (pen-strep), 1% Non-essential amino acids (NEAA) in a 5% CO2 incubator at 37° C. Huh7.5 cells are seeded at 1×10^4 cells per well into 96-well plates according to Southern Research Institute standard format. Test articles are serially diluted with DMEM plus 5% FBS. The diluted compound in the amount of 50 μl is mixed with equal volume of cell culture-derived HCV (HCVcc), then applied to appropriate wells in the plate. Human interferon alpha-2b (rIFNα-2b) and/or Sofosbuvir are included as a positive control. After 72 hr incubation at 37° C., the cells are lysed for measurement of luciferase activity using Renilla Luciferase Assay System (Promega) according to manufacturer's instruction. The number of cells in each well is determined by CytoTox-1 reagent (Promega).
Data set [2] in a line: HCV replicon assay, cell viability (CytoTox-1). The conditions noted are these: human, Huh7 hepatoma cells containing a subgenomic HCV replicon. Background: A replicon is a self-replicating genome or part of one, used to study replication in cells.
Method: We use the subgenomic HCV replicons of genotype 1a (H77 strain), 1b (Con1 strain), and 2a (JFH-1 strain), which are Huh7 human hepatoma cell lines that contains an HCV replicon.
Briefly, the replicon cells are plated at 5,000 cells/well into 96-well plates that are dedicated for the analysis of cell numbers (cytotoxicity) or antiviral activity. On the following day, samples are diluted with assay media and added to the appropriate wells. Cells are processed 72 hours later when the cells are still sub-confluent. […] The concentration of drug that reduces cell viability is assessed by the fluorometric CytoTox-1 cell proliferation assay (Promega), (expressed as cell numbers). […] Where applicable EC50 (concentration inhibiting HCV replicon by 50%), EC90 (concentration inhibiting HCV replicon by 90%), CC50 (concentration decreasing cell viability by 50%), CC90 (concentration decreasing cell viability by 90%) and SI (selectivity indices: CC50/EC50 and CC90/EC90) values are derived.
Data set [3] in a line: Infectious HCVcc assay, cell viability (CytoTox-1). The conditions noted are these: human, Huh7.5 cells infected with cell culture-derived HCV (HCVcc).
Method: as §1
For another data set, the system named is HCV GT1b CON-1 replicon. Put plainly: HCV replicon assay (antiviral activity). It is filed as cell-based, Hepatitis C virus. The conditions noted are these: In vitro HCV replicon assay. An excerpt:
The HCV replicon antiviral evaluation assay examines the effects of compound at six serial dilutions. Human interferon alpha-2b (rIFNα-2b) and Sofosbuvir are included in each run as a positive control compound.

Regarding `CC(=O)Oc1cc2c(s1)CCN(C(C(=O)C1CC1)c1ccccc1F)C2.Cl` (racemic) [Prasugrel, 5-[(1RS)-2-cyclopropyl-1-(2-fluorophenyl)-2-oxoethyl]-4,5,6,7-tetrahydrothieno[3,2-c]pyridin-2-yl acetate hydrochloride], the EC50 in data set [1] (Hepatitis C virus, 72 h) is 9.71 µM; in the data set with HCV GT1b CON-1 replicon (Hepatitis C virus, GT1B, concentration inhibiting HCV replicon by 50%, 72 hours) it was 47.1 µM. Besides, the Selectivity index is reported as more than 10.3 in data set [1] (In vitro HCVcc assay, CC50/EC50) and 1.88 in the data set on HCV GT1b CON-1 replicon (CC50/EC50). Further, the CC50 at 72 h in data set [2] was 88.5 µM; in data set [3], more than 100 µM.
